PubChem BioAssay AID248 (DTP/NCI, 2004)
Several values for one entry are separate records, joined by “and”; a condition that tells them apart may be missing. Identical values can stand only once. Inconclusive results and toxic doses are left out. Cut-off read from the data, not from the text of the source: active = T/C of 150% or more; inactive = T/C below 125%.

Tested on: L1210 leukemia ip in BDF1 mice, survival T/C
Assay: NCI In Vivo Anticancer Drug Screen. Data for tumor model L1210 Leukemia (intraperitoneal) in B6D2F1 (BDF1) mice
Conditions: endpoint: mean survival time, higher = longer survival
Outline: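 Mice bearing the transplanted tumor received compound or vehicle. Survival of the treated group was divided by that of the vehicle-treated control group to give the ratio.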

[1] = dose: 50.0 mg/kg/injection, schedule: Q01DX009 (ip), vehicle: Klucel (hydroxypropylcellulose) (HPC)
[2] = dose: 100.0 mg/kg/injection, schedule: Q01DX001 (ip), vehicle: saline
[3] = dose: 200.0 mg/kg/injection, schedule: Q01DX001 (ip), vehicle: saline
[4] = dose: 400.0 mg/kg/injection, schedule: Q01DX001 (ip), vehicle: saline
[5] = dose: 100.0 mg/kg/injection, schedule: Q01DX001 (ip), vehicle: other
[6] = dose: 200.0 mg/kg/injection, schedule: Q01DX001 (ip), vehicle: other
[7] = dose: 50.0 mg/kg/injection, schedule: Q01DX009 (ip), vehicle: saline with Tween-80
[8] = dose: 100.0 mg/kg/injection, schedule: Q01DX009 (ip), vehicle: saline with Tween-80
[9] = dose: 200.0 mg/kg/injection, schedule: Q01DX009 (ip), vehicle: saline with Tween-80
[10] = dose: 12.5 mg/kg/injection, schedule: Q01DX009 (ip), vehicle: Klucel (hydroxypropylcellulose) (HPC)
[11] = dose: 25.0 mg/kg/injection, schedule: Q01DX009 (ip), vehicle: Klucel (hydroxypropylcellulose) (HPC)
[12] = dose: 100.0 mg/kg/injection, schedule: Q04DX002 (ip), vehicle: saline with Tween-80
[13] = dose: 200.0 mg/kg/injection, schedule: Q04DX002 (ip), vehicle: saline with Tween-80
[14] = dose: 400.0 mg/kg/injection, schedule: Q04DX002 (ip), vehicle: saline with Tween-80
[15] = dose: 400.0 mg/kg/injection, schedule: Q01DX001 (ip), vehicle: other
[16] = dose: 100.0 mg/kg/injection, schedule: Q04DX003 (ip), vehicle: Klucel (hydroxypropylcellulose) (HPC)
[17] = dose: 200.0 mg/kg/injection, schedule: Q04DX003 (ip), vehicle: Klucel (hydroxypropylcellulose) (HPC)
[18] = dose: 400.0 mg/kg/injection, schedule: Q04DX003 (ip), vehicle: Klucel (hydroxypropylcellulose) (HPC)

Measured: T/C

O=C(Nc1ccc2c(c1)Cc1cccc(NC(=O)C(Cl)Cl)c1-2)C(Cl)Cl
inactive: [1] 95 % of control | dose: 200.0 mg/kg/injection, schedule: Q01DX009 (ip), vehicle: Klucel (hydroxypropylcellulose) (HPC) 89 % of control

N#CC(C#N)=C1CCSc2ccc(Cl)cc21
inactive: [2] 94 % of control | [3] 97 % of control | [4] 90 % of control

CCOC(=O)Nc1cc2c(c(N)n1)N=C(CN(C)c1ccc(C(=O)OC)cc1)CN2
inactive: dose: 5.0 mg/kg/injection, schedule: Q01DX009 (ip), vehicle: saline with Tween-80 105 % of control | dose: 10.0 mg/kg/injection, schedule: Q01DX009 (ip), vehicle: saline with Tween-80 118 % of control | dose: 20.0 mg/kg/injection, schedule: Q01DX009 (ip), vehicle: saline with Tween-80 124 % of control | [5] 107 % of control | [6] 111 % of control

O=S(=O)(O)CCS
inactive: [2] 94 % of control | [3] 105 % of control | [4] 100 % of control

Cn1c(=O)cn[nH]c1=O
inactive: [7] 100 % of control | [8] 108 % of control | [9] 103 % of control

O=C(Nc1ncc([N+](=O)[O-])s1)c1cccc([N+](=O)[O-])c1
inactive: dose: 6.25 mg/kg/injection, schedule: Q01DX009 (ip), vehicle: Klucel (hydroxypropylcellulose) (HPC) 92 % of control | dose: 6.25 mg/kg/injection, schedule: Q04DX003 (ip), vehicle: Klucel (hydroxypropylcellulose) (HPC) 105 % of control | [10] 100 % of control | dose: 12.5 mg/kg/injection, schedule: Q04DX003 (ip), vehicle: Klucel (hydroxypropylcellulose) (HPC) 102 % of control | [11] 89 % of control | dose: 25.0 mg/kg/injection, schedule: Q04DX003 (ip), vehicle: Klucel (hydroxypropylcellulose) (HPC) 102 % of control

CC(O)C(=O)COP(=O)(O)O (stereo not drawn)
inactive: [2] 96 % of control | [3] 102 % of control | [4] 96 % of control

N#CCCCN1CCOCC1
inactive: dose: 100.0 mg/kg/injection, schedule: Q04DX003 (ip), vehicle: saline 96 % of control | dose: 200.0 mg/kg/injection, schedule: Q04DX003 (ip), vehicle: saline 96 % of control | dose: 400.0 mg/kg/injection, schedule: Q04DX003 (ip), vehicle: saline 104 % of control

CC(c1ccccc1)N1C(=O)CSC1=S (stereo not drawn)
inactive: [7] 96 % of control and 101 % of control | dose: 100.0 mg/kg/injection, schedule: Q01DX001 (ip), vehicle: saline with Tween-80 100 % of control | [8] 99 % of control and 107 % of control | [12] 96 % of control and 98 % of control | dose: 100.0 mg/kg/injection, schedule: Q04DX003 (ip), vehicle: saline with Tween-80 104 % of control | dose: 200.0 mg/kg/injection, schedule: Q01DX001 (ip), vehicle: saline with Tween-80 100 % of control | [9] 96 % of control and 91 % of control | [13] 91 % of control | dose: 200.0 mg/kg/injection, schedule: Q04DX003 (ip), vehicle: saline with Tween-80 102 % of control | dose: 400.0 mg/kg/injection, schedule: Q01DX001 (ip), vehicle: saline with Tween-80 92 % of control | [14] 90 % of control | dose: 400.0 mg/kg/injection, schedule: Q04DX003 (ip), vehicle: saline with Tween-80 90 % of control

Cc1cccc(C)c1OC(=O)Nc1cccc2ccccc12
inactive: dose: 12.5 mg/kg/injection, schedule: Q04DX002 (ip), vehicle: Klucel (hydroxypropylcellulose) (HPC) 105 % of control | dose: 25.0 mg/kg/injection, schedule: Q04DX002 (ip), vehicle: Klucel (hydroxypropylcellulose) (HPC) 118 % of control | dose: 50.0 mg/kg/injection, schedule: Q04DX002 (ip), vehicle: Klucel (hydroxypropylcellulose) (HPC) 112 % of control | dose: 100.0 mg/kg/injection, schedule: Q04DX002 (ip), vehicle: Klucel (hydroxypropylcellulose) (HPC) 95 % of control | dose: 200.0 mg/kg/injection, schedule: Q04DX002 (ip), vehicle: Klucel (hydroxypropylcellulose) (HPC) 97 % of control | dose: 400.0 mg/kg/injection, schedule: Q04DX002 (ip), vehicle: Klucel (hydroxypropylcellulose) (HPC) 89 % of control

Nc1ncnc(N)c1NC(=O)c1ccc(CCc2ccccc2)c(Cl)c1
inactive: dose: 100.0 mg/kg/injection, schedule: Q01DX001 (ip), vehicle: Klucel (hydroxypropylcellulose) (HPC) 102 % of control | dose: 200.0 mg/kg/injection, schedule: Q01DX001 (ip), vehicle: Klucel (hydroxypropylcellulose) (HPC) 90 % of control | dose: 400.0 mg/kg/injection, schedule: Q01DX001 (ip), vehicle: Klucel (hydroxypropylcellulose) (HPC) 86 % of control

Cc1cc(O)c(N=Nc2ccc(C(=O)O)cc2)cc1C
inactive: dose: 25.0 mg/kg/injection, schedule: Q04DX003 (ip), vehicle: carboxymethylcellulose (CMC) 108 % of control | dose: 50.0 mg/kg/injection, schedule: Q04DX003 (ip), vehicle: carboxymethylcellulose (CMC) 103 % of control | [5] 102 % of control | dose: 100.0 mg/kg/injection, schedule: Q04DX003 (ip), vehicle: carboxymethylcellulose (CMC) 101 % of control | [6] 96 % of control | dose: 200.0 mg/kg/injection, schedule: Q04DX003 (ip), vehicle: carboxymethylcellulose (CMC) 101 % of control | [15] 93 % of control | dose: 400.0 mg/kg/injection, schedule: Q04DX003 (ip), vehicle: carboxymethylcellulose (CMC) 95 % of control

CC(=O)Nc1ccc2c(c1)C(S)c1ccccc1-2 (stereo not drawn)
inactive: dose: 100.0 mg/kg/injection, schedule: Q01DX001 (ip), vehicle: carboxymethylcellulose (CMC) 112 % of control | dose: 200.0 mg/kg/injection, schedule: Q01DX001 (ip), vehicle: carboxymethylcellulose (CMC) 114 % of control | dose: 400.0 mg/kg/injection, schedule: Q01DX001 (ip), vehicle: carboxymethylcellulose (CMC) 101 % of control

CC(C)C(=O)Nc1cc(Cl)ccc1Cl
inactive: [5] 94 % of control | [6] 97 % of control | [15] 92 % of control

C[N+](C)(C)c1ccc(N=C=S)cc1
inactive: [10] 94 % of control | [11] 105 % of control | [1] 103 % of control

COc1ccc2c(c1)CCC1C2=CC(=O)CC1c1ccco1 (stereo not drawn)
inactive: [16] 102 % of control | [17] 93 % of control | [18] 88 % of control

OCCNc1nc2ccccc2c2ccccc12
inactive: dose: 75.0 mg/kg/injection, schedule: Q01DX001 (ip), vehicle: carboxymethylcellulose (CMC) 98 % of control | dose: 150.0 mg/kg/injection, schedule: Q01DX001 (ip), vehicle: carboxymethylcellulose (CMC) 112 % of control

CCCCC/C(C)=C1\Oc2c(C)c(C)cc(C)c2C1=O
inactive: [12] 100 % of control | [13] 107 % of control | [14] 114 % of control

CCOC(=O)/C=C(/C)N
inactive: [12] 95 % of control | [13] 91 % of control | [14] 95 % of control

CCOC(=O)/C=C/c1cccc([N+](=O)[O-])c1
inactive: [16] 98 % of control | [17] 91 % of control | [18] 101 % of control

CC(NNC(c1ccccc1)(c1ccccc1)c1ccccc1)c1ccccc1I (stereo not drawn)
inactive: [12] 93 % of control | [13] 95 % of control | [14] 97 % of control
